{"source": "patent US4789630A", "about": "“Ionic compounds containing the cationic meriquinone of a benzidine” (Cetus Corporation, priority 1986, dated 1988)", "key": {"[1]": {"assay": "Crystal nucleation and filter trapping of the fumarate salt of the meriquinone of TMB", "assay_type": "physicochemical", "details": "10 mM Na fumarate, pH 3.92, 25 C", "protocol": "(§1) Stock HRP solutions were prepared in 0.10M NaCl, 1.0 mM Na phosphate, pH 6.0 to be 22 ng/ml or 0.43 ng/ml in HRP, shortly before assay, HRP-catalyzed oxidation of TMB by H2 O2 was initiated by adding 20 or 2.0 μl of […] or 20 or 10 μl of 0.43 ng/ml HRP to 1.00 ml of the assay solution at 25° C. […] At the end of each reaction interval, replicate 100 μl volumes of reaction mixture were spotted on a Nuclepore polycarbonate filter (3 μm pore size) and dried by gentle suction to give deposits 3-4 mm in diameter.\nThe initial velocity was transformed from units of absorbance per time to reciprocal time (turnover number) by dividing by the meriquinone extinction coefficient, 3.9×10^4 M^-1 cm^-1, and by the HRP concentration. […] The transition time is the time to crystal nucleation."}, "[2]": {"assay": "Solubility of TMB in a series of buffers", "assay_type": "physicochemical", "details": "for solubility: read-out: Solubility at 30.9 C", "quoted_text": "These are stoichiometric concentrations, uncorrected for ionization at pH 5.0. […] Each wash involved a total volume of 1.5 ml (pellet volume of about 0.3 ml) in an Eppendorf polypropylene centrifuge tube. […] At 30-60 min intervals, the crystal suspensions were spun 3-5 min at room temperature in a Fisher micro-centrifuge. […] After scanning, the solutions and pellets were returned to the equilibration tubes for renewed shaking. Repeat measurements were taken until precision within 20% was obtained. […] Care was taken to assure that solid meriquinone salt and solid TMB were present in each tube. Excess (saturating) TMB was added to suppress the dissociation of meriquinone charge-transfer complex into component quinone diimine and TMB (see FIG. 1). […] If the concentration was too high to measure undiluted with a 1 cm light path, the scan was performed on an undiluted sample with a 2 mm light path or an appropriately diluted sample (later discarded) with a 1 cm light path."}, "[3]": {"assay": "pH dependence of TMB solubility (saturating TMB)", "assay_type": "physicochemical", "details": "room temperature, pH 4.0; read-out: saturating TMB concentration", "protocol": "(§2) Regarding step (e), three independent variables (apart from temperature) most strongly influence horseradish […] activity with TMB as chromogenic substrate: TMB concentration, H2 O2 concentration, and pH. […] For relatively short assays (0-10 min.), however, suicide is not severe, and initial velocity is the most important indicator of enzyme activity. Initial velocity rises monotonically with TMB concentration, and is almost proportional to TMB concentration at a H2 O2 concentration of greater than 2 mM. The pH dependence of initial velocity at constant TMB concentration indicates an optimum pH at 4. The pH dependence of TMB solubility indicates a monotonic and increasingly steep rise as the pH is lowered from 5. […] Therefore, a pH of 3.5-4.5 is the preferred pH range for step (e), more preferably pH 4.0, if the substituted benzidine is TMB and the oxidation catalyst is horseradish peroxidase. The optimum horseradish peroxidase assay conditions are at room temperature, pH 4.0, 0.4 mM (saturating) TMB, and 2-3 mM H2 O2."}, "[4]": {"biological_target": "T1, horseradish peroxidase (HRP) (Armoracia rusticana, UniProt P00433)", "T1 sequence (P00433 31-353)": "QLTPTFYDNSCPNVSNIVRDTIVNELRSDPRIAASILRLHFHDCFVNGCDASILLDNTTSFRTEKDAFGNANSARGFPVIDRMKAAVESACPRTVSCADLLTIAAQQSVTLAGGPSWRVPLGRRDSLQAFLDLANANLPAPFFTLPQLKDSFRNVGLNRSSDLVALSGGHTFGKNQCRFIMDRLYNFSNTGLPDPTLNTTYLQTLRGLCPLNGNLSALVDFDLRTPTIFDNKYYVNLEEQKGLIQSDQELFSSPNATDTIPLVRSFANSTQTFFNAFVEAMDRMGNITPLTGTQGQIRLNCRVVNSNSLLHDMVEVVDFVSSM", "assay": "Kinetics of TMB oxidation by H2O2 and HRP in pH 3.9 fumarate-EDTA buffer", "assay_type": "biochemical", "details": "0.31 mM TMB, 3.0 mM H2O2, 10 mM Na fumarate, 1 mM EDTA, pH 3.92, 25 C", "protocol": "as §1, with “At the two lower HRP concentrations (0.22 and 0.11 pM in the cuvette), the reaction was followed for 30 minutes. At the end of” for “At the end of”\nThe initial velocity was transformed from units of absorbance per time to reciprocal time (turnover number) by dividing by the meriquinone extinction coefficient, 3.9×10^4 M^-1 cm^-1, and by the HRP concentration. […] The transition time is the time to crystal nucleation. […] The A652 of the 30 minute reaction mixture for 0.11 pM HRP was below 0.03, the approximate visual threshold, so that filtration trapping served to concentrate the signal to improve visibility. […] In addition, a white membrane would offer sharper visual contrast than the slightly yellow, translucent, polycarbonate. The transition time has a very shallow HRP concentration dependence, so that even lower HRP concentrations are unlikely to require assay times longer than 30 minutes in order to permit crystallization to occur. The transition time probably could be lowered by adding anionic latex microspheres which might serve to nucleate crystallization."}, "[5]": {"biological_target": "T2, horseradish peroxidase (Armoracia rusticana, UniProt P00433)", "T2 sequence (P00433 31-353)": "T1 sequence (P00433 31-353)", "assay": "Horseradish peroxidase activity with TMB as chromogenic substrate, pH dependence", "assay_type": "biochemical", "details": "from pH 5.0 to pH 4.0", "protocol": "as §2"}, "[6]": {"assay": "Solubilities of salts of the meriquinone of TMB (equilibration of solid salt with buffer, A650)", "quoted_text": "These are stoichiometric concentrations, uncorrected for ionization at pH 5.0. […] Each wash involved a total volume of 1.5 ml (pellet volume of about 0.3 ml) in an Eppendorf polypropylene centrifuge tube. […] At 30-60 min intervals, the crystal suspensions were spun 3-5 min at room temperature in a Fisher micro-centrifuge. […] After scanning, the solutions and pellets were returned to the equilibration tubes for renewed shaking. Repeat measurements were taken until precision within 20% was obtained. […] Care was taken to assure that solid meriquinone salt and solid TMB were present in each tube. Excess (saturating) TMB was added to suppress the dissociation of meriquinone charge-transfer complex into component quinone diimine and TMB (see FIG. 1). […] These spectra contained absorbance peaks at 370 and 650 nm characteristic of meriquinone and a very small shoulder at 450 nm assigned to quinone diimine; a much larger peak near 280 nm confirmed the presence of excess TMB. […] If the concentration was too high to measure undiluted with a 1 cm light path, the scan was performed on an undiluted sample with a 2 mm light path or an appropriately diluted sample (later discarded) with a 1 cm light path.\nSolubilities at 0 C. were determined for all solutions in which they were high enough for accurate measurement.\nThe dashed lines were visually fitted. […]"}}, "data": [{"compound": "Cc1cc(-c2cc(C)c(N)c(C)c2)cc(C)c1N", "note": "[TMB, 3,3',5,5'-tetramethylbenzidine]", "values": [{"measurement": "A652 at Transition", "setting": "[1]; [HRP] 0.11 x 10^-12 M", "value": 0.025}, {"measurement": "Transition Time (time to crystal nucleation)", "setting": "[1]; [HRP] 0.11 x 10^-12 M", "value": 10, "unit": "min"}, {"measurement": "A652 at Transition", "setting": "[1]; [HRP] 0.21 x 10^-12 M", "value": 0.04}, {"measurement": "Transition Time (time to crystal nucleation)", "setting": "[1]; [HRP] 0.21 x 10^-12 M", "value": 10, "unit": "min"}, {"measurement": "A652 at Transition", "setting": "[1]; [HRP] 1.1 x 10^-12 M", "value": 0.08}, {"measurement": "Transition Time (time to crystal nucleation)", "setting": "[1]; [HRP] 1.1 x 10^-12 M", "value": "3 to 4", "unit": "min"}, {"measurement": "A652 at Transition", "setting": "[1]; [HRP] 11 x 10^-12 M", "value": "0.25-0.50"}, {"measurement": "Transition Time (time to crystal nucleation)", "setting": "[1]; [HRP] 11 x 10^-12 M", "value": "1 to 2", "unit": "min"}, {"measurement": "Solubility Ratio: 30.9 C/0.0 C", "setting": "[2]; acetate buffer, pH 5.0, 0.10M", "value": 2.4}, {"measurement": "solubility", "setting": "[2]; aqueous buffer, acetate buffer, pH 5.0, 0.10M", "value": 170, "unit": "µM"}, {"measurement": "solubility", "setting": "[2]; aqueous buffer, citrate buffer, pH 5.0, 0.10M", "value": 170, "unit": "µM"}, {"measurement": "solubility", "setting": "[2]; aqueous buffer, glutarate buffer, pH 5.0, 0.10M", "value": 170, "unit": "µM"}, {"measurement": "solubility", "setting": "[2]; aqueous buffer, maleate buffer, pH 5.0, 0.10M", "value": 210, "unit": "µM"}, {"measurement": "solubility", "setting": "[2]; aqueous buffer, malonate buffer, pH 5.0, 0.10M", "value": 160, "unit": "µM"}, {"measurement": "solubility", "setting": "[2]; aqueous buffer, phosphate buffer, pH 5.0, 0.10M", "value": 160, "unit": "µM"}, {"measurement": "Solubility Ratio: 30.9 C/0.0 C", "setting": "[2]; citrate buffer, pH 5.0, 0.10M", "value": 2.3}, {"measurement": "Solubility Ratio: 30.9 C/0.0 C", "setting": "[2]; fumarate buffer, pH 5.0, 0.10M", "value": 3.9}, {"measurement": "solubility", "setting": "[2]; fumarate buffer, pH 5, aqueous buffer", "value": 160, "unit": "µM"}, {"measurement": "Solubility Ratio: 30.9 C/0.0 C", "setting": "[2]; glutarate buffer, pH 5.0, 0.10M", "value": 2.0}, {"measurement": "Solubility Ratio: 30.9 C/0.0 C", "setting": "[2]; maleate buffer, pH 5.0, 0.10M", "value": 7.6}, {"measurement": "Solubility Ratio: 30.9 C/0.0 C", "setting": "[2]; malonate buffer, pH 5.0, 0.10M", "value": 1.8}, {"measurement": "Solubility Ratio: 30.9 C/0.0 C", "setting": "[2]; oxalate buffer, pH 5.0, 0.10M", "value": 12}, {"measurement": "solubility", "setting": "[2]; oxalate buffer, pH 5, aqueous buffer", "value": 160, "unit": "µM"}, {"measurement": "Solubility Ratio: 30.9 C/0.0 C", "setting": "[2]; phosphate buffer, pH 5.0, 0.10M", "value": 2.0}, {"measurement": "Solubility Ratio: 30.9 C/0.0 C", "setting": "[2]; sulfate buffer, pH 5.0, 0.10M", "value": 1.9}, {"measurement": "solubility", "setting": "[2]; sulfate buffer, pH 5, aqueous buffer", "value": 150, "unit": "µM"}, {"measurement": "solubility", "setting": "[3]", "value": 400, "unit": "µM"}, {"measurement": "Vinitial", "setting": "[4]; [HRP] 0.11 x 10^-12 M", "value": "4.4 × 10^-5 WA652 S^-1"}, {"measurement": "Vinitial", "setting": "[4]; [HRP] 0.21 x 10^-12 M", "value": "8.0 × 10^-5 WA652 S^-1"}, {"measurement": "Vinitial", "setting": "[4]; [HRP] 1.1 x 10^-12 M", "value": "4.1 × 10^-4 WA652 S^-1"}, {"measurement": "Vinitial", "setting": "[4]; [HRP] 11 x 10^-12 M", "value": "4.2 × 10^-3 WA652 S^-1"}, {"measurement": "increase of initial velocity at saturating TMB", "setting": "[5]", "value": "four-fold increase"}]}, {"compound": "Maleate", "values": [{"measurement": "Solubility Ratio: 25.2 C/0.0 C", "setting": "[6]; averaged for the different stated concentrations of each salt, buffers pH 5.0 at room temperature", "value": 8.1}, {"measurement": "Molar Solubility in 0.1 M Anion", "setting": "[6]; extrapolated, pH 5.0, 10% ethanol, 0.10M sodium acetate, 25.2 C", "value": "4 × 10^-8 Molar"}]}]}
